In the assay the target is T1, Androgen Receptor (AR) protein (Homo sapiens, UniProt P10275, T878A).
T1 construct: endogenous in cells; host or cells: LNCaP
The assay can be described thus: Androgen Receptor (AR) protein degradation assay in LNCaP cells, western blotting. It counts as cell-based. The settings on record: 20 h; for inhibition at 0.01 µM: 0.01 μM compound; for inhibition at 0.1 µM: 0.1 μM compound; for inhibition at 1 µM: 1 μM compound; for inhibition at 10 µM: 10 μM compound. Summed up: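 AR protein level was detected by western blot (ECL) against GAPDH or β-actin controls, with 8 μg lysate protein loaded per lane after BCA quantification. Lysates came from LNCaP cells exposed to test compound for 20 h, following 3 days of growth in RPMI/10% FBS.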
Background: A western blot detects proteins with antibodies after separation by electrophoresis.

Each structure is given as a SMILES string.

T1 sequence (P10275 whole entry T878A): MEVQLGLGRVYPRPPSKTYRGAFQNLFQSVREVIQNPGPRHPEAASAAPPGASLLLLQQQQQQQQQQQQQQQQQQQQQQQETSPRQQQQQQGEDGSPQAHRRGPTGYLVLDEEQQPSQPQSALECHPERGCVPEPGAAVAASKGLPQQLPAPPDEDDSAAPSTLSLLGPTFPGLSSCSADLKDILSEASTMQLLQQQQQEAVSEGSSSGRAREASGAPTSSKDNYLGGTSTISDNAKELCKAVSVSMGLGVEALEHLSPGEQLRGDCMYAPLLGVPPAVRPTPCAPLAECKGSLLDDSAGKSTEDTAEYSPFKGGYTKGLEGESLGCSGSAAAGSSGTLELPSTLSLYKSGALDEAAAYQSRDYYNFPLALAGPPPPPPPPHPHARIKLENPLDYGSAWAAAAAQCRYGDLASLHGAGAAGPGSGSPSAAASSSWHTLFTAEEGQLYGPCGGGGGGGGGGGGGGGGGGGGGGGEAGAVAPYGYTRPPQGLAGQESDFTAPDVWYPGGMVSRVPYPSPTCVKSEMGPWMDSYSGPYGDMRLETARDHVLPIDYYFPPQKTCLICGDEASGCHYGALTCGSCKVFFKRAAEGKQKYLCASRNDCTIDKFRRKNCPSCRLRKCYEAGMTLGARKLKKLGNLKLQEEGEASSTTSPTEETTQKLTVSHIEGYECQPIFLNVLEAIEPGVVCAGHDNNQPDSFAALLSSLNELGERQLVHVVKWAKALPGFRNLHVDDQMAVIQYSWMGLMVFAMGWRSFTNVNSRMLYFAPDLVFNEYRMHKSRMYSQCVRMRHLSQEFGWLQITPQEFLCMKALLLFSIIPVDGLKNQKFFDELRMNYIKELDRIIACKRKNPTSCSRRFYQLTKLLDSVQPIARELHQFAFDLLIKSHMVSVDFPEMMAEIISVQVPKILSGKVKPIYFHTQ
T1 sequence (Q96SW2 whole entry partner): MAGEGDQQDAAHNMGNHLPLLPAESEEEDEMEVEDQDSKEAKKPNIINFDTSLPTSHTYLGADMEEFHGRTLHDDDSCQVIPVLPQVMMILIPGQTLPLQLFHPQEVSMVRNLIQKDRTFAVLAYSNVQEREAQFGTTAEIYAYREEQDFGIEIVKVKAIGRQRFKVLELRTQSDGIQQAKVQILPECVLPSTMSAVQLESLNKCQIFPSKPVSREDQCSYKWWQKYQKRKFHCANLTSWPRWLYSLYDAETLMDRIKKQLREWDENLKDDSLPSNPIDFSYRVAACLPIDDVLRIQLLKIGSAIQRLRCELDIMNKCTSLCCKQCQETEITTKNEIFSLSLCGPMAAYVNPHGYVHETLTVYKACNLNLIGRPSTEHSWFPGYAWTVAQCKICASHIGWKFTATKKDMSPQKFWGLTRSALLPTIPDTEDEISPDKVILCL

The inhibition is the drop in the measured response relative to a control, in per cent. A higher inhibition goes with strong suppression. In the case of `N#Cc1ccc(N2CCC(C(=O)Nc3ccc(N4CCC5(CC4)CN(CC4CN(c6ccc7c(c6)C(=O)N(C6CCC(=O)NC6=O)C7=O)C4)C5)cn3)CC2)cc1C(F)(F)F` (stereo not shown) [Example 128, 1-(4-cyano-3-(trifluoromethyl)phenyl)-N-(5-(2-((1-(2-(2,6-dioxopiperidin-3-yl)-1,3-dioxoisoindolin-5-yl)azetidin-3-yl)methyl)-2,7-diazaspiro[3.5]nonan-7-yl)pyridin-2-yl)piperidine-4-carboxamide], the inhibition at 0.01 µM was 28%, the inhibition at 0.1 µM amounted to 43% and the inhibition at 1 µM stood at 61%.
Taken in the same sequence, the figures for `N#Cc1ccc(N2CCC(C(=O)Nc3ccc(N4CCC5(CC4)CN(C(=O)C4CCN(c6ccc7c(c6)C(=O)N(C6CCC(=O)NC6=O)C7=O)CC4)C5)cn3)CC2)cc1C(F)(F)F` (stereo not shown) [Example 129, 1-(4-cyano-3-(trifluoromethyl)phenyl)-N-(5-(2-(1-(2-(2,6-dioxopiperidin-3-yl)-1,3-dioxoisoindolin-5-yl)piperidine-4-carbonyl)-2,7-diazaspiro[3.5]nonan-7-yl)pyridin-2-yl)piperidine-4-carboxamide] were 11%, 42% and 71%.
As for `N#Cc1ccc(N2CCC(C(=O)Nc3ccc(N4CCN(CC5CCN(C(=O)CNc6ccc7c(c6)C(=O)N(C6CCC(=O)NC6=O)C7=O)CC5)CC4)cn3)CC2)cc1C(F)(F)F` (stereo not shown) [Example 130, 1-(4-cyano-3-(trifluoromethyl)phenyl)-N-(5-(4-((1-((2-(2,6-dioxopiperidin-3-yl)-1,3-dioxoisoindolin-5-yl)glycyl)piperidin-4-yl)methyl)piperazin-1-yl)pyridin-2-yl)piperidine-4-carboxamide], the inhibition at 0.01 µM turned out to be 78%, the inhibition at 0.1 µM came out at 95%, at 1 µM the inhibition was 95% and the inhibition at 10 µM stood at 93%.
The molecule `N#Cc1ccc(N2CCC(C(=O)Nc3ccc(C#CC4CCN(CC5CCN(c6ccc7c(c6)C(=O)N(C6CCC(=O)NC6=O)C7=O)CC5)CC4)cn3)CC2)cc1C(F)(F)F` (stereo not shown) [Example 131, 1-(4-cyano-3-(trifluoromethyl)phenyl)-N-(5-((1-((1-(2-(2,6-dioxopiperidin-3-yl)-1,3-dioxoisoindolin-5-yl)piperidin-4-yl)methyl)piperidin-4-yl)ethynyl)pyridin-2-yl)piperidine-4-carboxamide] yielded an inhibition at 0.01 µM of 28%, an inhibition at 0.1 µM of 66%, an inhibition at 1 µM of 82% and an inhibition at 10 µM of 87%.
Taken in the same sequence, the figures for `N#Cc1ccc(N2CCC(C(=O)Nc3ccc(C#CC4CCN(CC5CN(c6ccc7c(c6)C(=O)N(C6CCC(=O)NC6=O)C7=O)C5)CC4)cn3)CC2)cc1C(F)(F)F` (stereo not shown) [Example 132, 1-(4-cyano-3-(trifluoromethyl)phenyl)-N-(5-((1-((1-(2-(2,6-dioxopiperidin-3-yl)-1,3-dioxoisoindolin-5-yl)azetidin-3-yl)methyl)piperidin-4-yl)ethynyl)pyridin-2-yl)piperidine-4-carboxamide] were 31%, 67%, 72% and 77%.
`N#Cc1ccc(N2CCC(C(=O)Nc3ccc(CCC4CCN(CC5CCN(c6ccc7c(c6)C(=O)N(C6CCC(=O)NC6=O)C7=O)CC5)CC4)cn3)CC2)cc1C(F)(F)F` (stereo not shown) [Example 133, 1-(4-cyano-3-(trifluoromethyl)phenyl)-N-(5-(2-(1-((1-(2-(2,6-dioxopiperidin-3-yl)-1,3-dioxoisoindolin-5-yl)piperidin-4-yl)methyl)piperidin-4-yl)ethyl)pyridin-2-yl)piperidine-4-carboxamide] gave an inhibition at 0.01 µM of 60%, an inhibition at 0.1 µM of 93% and an inhibition at 1 µM of 98%.
In turn, `N#Cc1ccc(N2CCC(C(=O)Nc3ccc(C#CCN4CC5(CCN(c6ccc7c(c6)C(=O)N(C6CCC(=O)NC6=O)C7=O)CC5)C4)cn3)CC2)cc1C(F)(F)F` (stereo not shown) [Example 134, 1-(4-cyano-3-(trifluoromethyl)phenyl)-N-(5-(3-(7-(2-(2,6-dioxopiperidin-3-yl)-1,3-dioxoisoindolin-5-yl)-2,7-diazaspiro[3.5]nonan-2-yl)prop-1-yn-1-yl)pyridin-2-yl)piperidine-4-carboxamide] returned an inhibition at 0.01 µM of 56%, an inhibition at 0.1 µM of 87%, an inhibition at 1 µM of 96% and an inhibition at 10 µM of 92%.
Molecule `N#Cc1ccc(N2CCC(C(=O)Nc3ccc(N4CCC(CN5CC6(CCN(c7ccc8c(c7)CN(C7CCC(=O)NC7=O)C8=O)CC6)C5)CC4)cn3)CC2)cc1C(F)(F)F` (stereo not shown) [Example 135, 1-(4-cyano-3-(trifluoromethyl)phenyl)-N-(5-(4-((7-(2-(2,6-dioxopiperidin-3-yl)-1-oxoisoindolin-5-yl)-2,7-diazaspiro[3.5]nonan-2-yl)methyl)piperidin-1-yl)pyridin-2-yl)piperidine-4-carboxamide] returned an inhibition at 0.01 µM of 35%, an inhibition at 0.1 µM of 94% and an inhibition at 1 µM of 85%.
Taken in the same sequence, the figures for `N#Cc1ccc(N2CCC(F)(C(=O)Nc3ccc(N4CCC(CN5CC6(CCN(c7ccc8c(c7)CN(C7CCC(=O)NC7=O)C8=O)CC6)C5)CC4)cn3)CC2)cc1C(F)(F)F` (stereo not shown) [Example 136, 1-(4-cyano-3-(trifluoromethyl)phenyl)-N-(5-(4-((7-(2-(2,6-dioxopiperidin-3-yl)-1-oxoisoindolin-5-yl)-2,7-diazaspiro[3.5]nonan-2-yl)methyl)piperidin-1-yl)pyridin-2-yl)-4-fluoropiperidine-4-carboxamide] were 38%, 92% and 91%.
Taken in the same sequence, the figures for `N#Cc1ncc(N2CCC(C(=O)Nc3ccc(N4CCC(CN5CC6(CCN(c7ccc8c(c7)CN(C7CCC(=O)NC7=O)C8=O)CC6)C5)CC4)cn3)CC2)cc1C(F)(F)F` (stereo not shown) [Example 137, 1-(6-cyano-5-(trifluoromethyl)pyridin-3-yl)-N-(5-(4-((7-(2-(2,6-dioxopiperidin-3-yl)-1-oxoisoindolin-5-yl)-2,7-diazaspiro[3.5]nonan-2-yl)methyl)piperidin-1-yl)pyridin-2-yl)piperidine-4-carboxamide] were 46%, 86% and 82%.
Taken in the same sequence, the figures for `N#Cc1ccc(N2CCC(C(=O)Nc3ccc(N4CCC(CCN5CC6(CCN(c7ccc8c(c7)CN(C7CCC(=O)NC7=O)C8=O)CC6)C5)CC4)cn3)CC2)cc1C(F)(F)F` (stereo not shown) [Example 138, 1-(4-cyano-3-(trifluoromethyl)phenyl)-N-(5-(4-(2-(7-(2-(2,6-dioxopiperidin-3-yl)-1-oxoisoindolin-5-yl)-2,7-diazaspiro[3.5]nonan-2-yl)ethyl)piperidin-1-yl)pyridin-2-yl)piperidine-4-carboxamide] were 52%, 95% and 90%.
`N#Cc1ccc(N2CCC(C(=O)Nc3ccc(N4CCC(CCN5CCN(c6ccc7c(c6)CN(C6CCC(=O)NC6=O)C7=O)CC5)CC4)cn3)CC2)cc1C(F)(F)F` (stereo not shown) [Example 139, 1-(4-cyano-3-(trifluoromethyl)phenyl)-N-(5-(4-(2-(4-(2-(2,6-dioxopiperidin-3-yl)-1-oxoisoindolin-5-yl)piperazin-1-yl)ethyl)piperidin-1-yl)pyridin-2-yl)piperidine-4-carboxamide] displayed an inhibition at 0.01 µM of 30%, an inhibition at 0.1 µM of 92% and an inhibition at 1 µM of 84%.
Taken in the same sequence, the figures for `N#Cc1ccc(N2CCC(C(=O)Nc3ccc(N4CCC(CN5CCN(C6CCN(c7ccc8c(c7)CN(C7CCC(=O)NC7=O)C8=O)CC6)CC5)CC4)cn3)CC2)cc1C(F)(F)F` (stereo not shown) [Example 140, 1-(4-cyano-3-(trifluoromethyl)phenyl)-N-(5-(4-((4-(1-(2-(2,6-dioxopiperidin-3-yl)-1-oxoisoindolin-5-yl)piperidin-4-yl)piperazin-1-yl)methyl)piperidin-1-yl)pyridin-2-yl)piperidine-4-carboxamide] were 87%, 98% and 95%.
Taken in the same sequence, the figures for `N#Cc1ccc(N2CCC(F)(C(=O)Nc3ccc(N4CCC(CN5CCN(C6CCN(c7ccc8c(c7)CN(C7CCC(=O)NC7=O)C8=O)CC6)CC5)CC4)cn3)CC2)cc1C(F)(F)F` (stereo not shown) [Example 141, 1-(4-cyano-3-(trifluoromethyl)phenyl)-N-(5-(4-((4-(1-(2-(2,6-dioxopiperidin-3-yl)-1-oxoisoindolin-5-yl)piperidin-4-yl)piperazin-1-yl)methyl)piperidin-1-yl)pyridin-2-yl)-4-fluoropiperidine-4-carboxamide] were 66%, 92% and 90%.
Taken in the same sequence, the figures for `N#Cc1ncc(N2CCC(C(=O)Nc3ccc(N4CCC(CN5CCN(C6CCN(c7ccc8c(c7)CN(C7CCC(=O)NC7=O)C8=O)CC6)CC5)CC4)cn3)CC2)cc1C(F)(F)F` (stereo not shown) [Example 142, 1-(6-cyano-5-(trifluoromethyl)pyridin-3-yl)-N-(5-(4-((4-(1-(2-(2,6-dioxopiperidin-3-yl)-1-oxoisoindolin-5-yl)piperidin-4-yl)piperazin-1-yl)methyl)piperidin-1-yl)pyridin-2-yl)piperidine-4-carboxamide] were 55%, 87% and 83%.
Molecule `N#Cc1ccc(N2CCC(C(=O)Nc3ccc(N4CCC(CN5CCN(CC6CCN(c7ccc8c(c7)CN(C7CCC(=O)NC7=O)C8=O)CC6)CC5)CC4)cn3)CC2)cc1C(F)(F)F` (stereo not shown) [Example 143, 1-(4-cyano-3-(trifluoromethyl)phenyl)-N-(5-(4-((4-((1-(2-(2,6-dioxopiperidin-3-yl)-1-oxoisoindolin-5-yl)piperidin-4-yl)methyl)piperazin-1-yl)methyl)piperidin-1-yl)pyridin-2-yl)piperidine-4-carboxamide] came in with an inhibition at 0.01 µM of 73%, an inhibition at 0.1 µM of 97% and an inhibition at 1 µM of 97%.

(Values after patent US12122763B2, “Substituted piperidines for androgen receptor degradation” (UBIX THERAPEUTICS, INC., priority 2020, dated 2024).)
